Measurements: article PMC8563958 (Cell Research, 2021)
Read-outs that look alike come from different tables or passages of the source.

What was measured:
[1] = ref not given, cited from earlier work
From the text: In contrast to other M ...

wild-type MC4R (WT) = molecular target: T1, wild-type MC4R (WT) (Homo sapiens, UniProt P32245); assay type: cell-based; conditions: set as 100 %, 1 µM ligand, HEK293, 40 min 37 °C, 1 mM IBMX, 4-8 experiments in triplicates
T1 construct: expressed in transfected cells; host or cells: HEK293 (transient, vector pcDps)

MC4R H158A = molecular target: T2, MC4R H158A (Homo sapiens, UniProt P32245, H158A); assay type: cell-based
T2 construct: expressed in transfected cells; host or cells: HEK293 (transient, vector pcDps)

[2] = molecular target: MC4R D122S, N-terminally HA-tagged (human) (UniProt P32245)
MC1R = conditions: cited from earlier work
MC4R L133 to methionine = conditions: cited from earlier work
MC5R = MC5R with V126; cited from earlier work
MC4R [3] = conditions: cited from earlier work
From the text: (Fig. 1a). The binding mode of SHU9119 is generally like that of NDP-α-MSH. […] W6^3 is also clamped by H264^6.54 (TM6) and S188^EL2, and R5^2 connects TM3−TM4 and EL2 through hydrogen bonds with S188^EL2 and I185^4.61 (Fig. 2i; Supplementary information, Fig. S11 and Table S4).

MC4R [4] = tested on: MC4R; parameters: method as in earlier work; conditions: ref 4 (AgRP); ref not given for MSH; cited from earlier work
[5] = molecular target: wild-type MC4R, N-terminally HA-tagged (signalling construct) (human) (UniProt P32245)

In the case of CC(=O)N[C@@H](CCCNC(=N)N)C(=O)N[C@H]1CSSC[C@@H](C(N)=O)NC(=O)[C@H](Cc2c[nH]c3ccccc23)NC(=O)[C@H](CCCNC(=N)N)NC(=O)[C@@H](Cc2ccccc2)NC(=O)[C@H](Cc2c[nH]cn2)NC(=O)[C@@H](C)NC1=O [setmelanotide], the “Gs signaling-related adverse effects” value ([1]; in contrast to other MC4R agonists) is given as “does not cause common Gs signaling-related adverse effects, such as tachycardia or hypertension”, the adverse effects ([1]; rare, moderate) is given as “skin hyperpigmentation” and the “Emax cAMP” value (wild-type MC4R (WT)) is given as 100 % of WT. For the same molecule, the “maximum Gq/11 signaling” value (MC4R H158A) was 50%.
For NDP-α-MSH (peptide), the EC50 of cAMP accumulation (Gs signaling), transfected HEK293 cells [2] was 9 nM.
For SHU9119, the “mode of action at MC1R” value (MC1R; MC1R with M128, 37 (ref 36)) is listed as “partial agonist”, the “mode of action in MC1R–Gs complex” value (MC1R; cryo-EM structure of active MC1R–Gs complex) is listed as “acting as an agonist” and the “mode of action at L133M mutant” value (MC4R L133 to methionine) is listed as “reverses SHU9119 to an agonist”. The “mode of action at MC5R” value (MC5R) was “partial agonist” and the “mode of action at MC4R” value (MC4R [3]; antagonism) was “antagonizes the MC4R”.
In the case of “agouti-related peptide (SSRRCVRLHESCLGQQVPCCDPCATCYCRFFNAFCYCRKLGTAMNPCSRT; UniProt O00253 83-132, looked up) [AgRP]”, the effect on appetite (MC4R [4]) is given as “orexigenic effects” and the “mode of action at MC4R” value (MC4R [3]; reducing high levels of basal signaling activity) is given as “inverse agonist”.
In the case of melanotan II, the “mode of action at MC4R” value (MC4R [3]) is listed as “agonizes MC4R” and the “mode of action at MC4R” value (MC4R [3]; listed as melatonan II) is listed as “agonistic effects”.
Molecule setmelanotide (peptide) has a potency (EC50) of cAMP accumulation, transfected HEK293 cells [5] of 1.2 nM.
For β-MSH, the effect on appetite (MC4R [4]) is given as “appetite-reducing effects”.
